The values that follow come from ChEMBL document CHEMBL4699580, “Drophiobiolins A and B, Bioactive Ophiobolan Sestertepenoids Produced by Dreschslera gigantea” (J Nat Prod, 2020).

A word on the pIC50: it is the negative decadic logarithm of the IC50, by convention in mol/L.

Each structure is given as a SMILES string. pIC50: −log10 of the molar value. Activity calls are given as the source filed them. No cut-off for these calls is given here.

One test relates to NCI-H1299. In words: Cytotoxicity against human NCI-H1299 cells assessed as reduction in cell viability at 0.5 to 10 uM after 24 hrs by MTT assay. The test is classed as functional, cell-based. The conditions noted are these: dose microM 0.5-10, time 24.0 hrs. For orientation: Formazan colour is commonly taken as a measure of viable cells.
For test [1], the system named is Solanum lycopersicum. In words: Phytotoxicity against Lycopersicon esculentum leaf assessed as diameter of necrosis at 10^-4 M by leaf-puncture assay. The test is classed as functional. Conditions: dose 0.0001 M; 100 µM.
Another test deals with A-431. Description: Cytotoxicity against human A-431 cells assessed as reduction in cell viability at 0.5 to 10 uM after 24 hrs by MTT assay relative to control. Format: functional. Conditions: dose microM 0.5-10.
Test [2] relates to Chenopodium album. In words: Phytotoxicity against Chenopodium album leaf assessed as diameter of necrosis at 10^-3 M by leaf-puncture assay. Format: functional. Conditions: dose 0.001 M; 1000 µM.
Test [3] deals with HeLa. In words: Cytotoxicity against human HeLa cells assessed as reduction in cell viability after 24 hrs by MTT assay. The test is classed as functional, cell-based.
The subject of test [4] is Chenopodium album. In words: Phytotoxicity against Chenopodium album leaf assessed as diameter of necrosis at 10^-4 M by leaf-puncture assay. The test is classed as functional. The conditions noted are these: dose 0.0001 M; 100 µM.
Test [5] deals with Digitaria sanguinalis. Description: Phytotoxicity against Digitaria sanguinalis leaf assessed as diameter of necrosis at 10^-4 M by leaf-puncture assay. The test is classed as functional. The conditions noted are these: dose 0.0001 M; 100 µM.
The next test concerns HaCaT. Description: Cytotoxicity against human HaCaT cells assessed as reduction in cell viability at 0.5 to 10 uM after 24 hrs by MTT assay relative to control. Format: functional. The conditions noted are these: dose microM 0.5-10.
In test [6] the test system is Solanum lycopersicum. Description: Phytotoxicity against Lycopersicon esculentum leaf assessed as diameter of necrosis at 10^-3 M by leaf-puncture assay. Conditions: dose 0.001 M; 1000 µM. The test is classed as functional.
The subject of test [7] is Digitaria sanguinalis. In words: Phytotoxicity against Digitaria sanguinalis leaves assessed as diameter of necrosis at 10^-3 M by leaf-puncture assay. The test is classed as functional. Conditions: dose 0.001 M; 1000 µM.
Test [8] deals with HeLa. Description: Cytotoxicity against human HeLa cells assessed as reduction in cell viability at 0.5 to 10 uM after 24 hrs by MTT assay relative to control. The test is classed as functional. The conditions noted are these: dose microM 0.5-10.
The next test relates to B16-F10. In words: Antiproliferative activity against mouse B16-F10 cells assessed as reduction in cell viability after 72 hrs by MTT assay. Conditions: B16-F10, 72 h. Format: functional, cell-based.
For a further test, the system named is RD. In words: Cytotoxicity against human RD cells assessed as reduction in cell viability relative to control. The test is classed as functional.

With `CC(C)=C[C@H]1C[C@H](C)[C@]2(CC[C@]3(C)C[C@@H]4C(C)=CC(=O)/C4=C(\CO)C(=O)C[C@H]32)O1`, the outcome in the test on NCI-H1299 was inactive. Besides, the Activity is given as 2 mm in the test on Solanum lycopersicum [1]; “<=72%” in the test on A-431; 3 mm in the test with Chenopodium album [2]; 1 mm in the test with Chenopodium album [4]; 2 mm in the test with Digitaria sanguinalis [5]; “<=63%” with HaCaT. Further, the Activity in the test with Solanum lycopersicum [6] was 2 mm; in the test with Digitaria sanguinalis [7], 3 mm; with HeLa [8], “<=50%”. Besides, the pIC50 in the test on HeLa [3] is 5.00.

For `CC(C)=C[C@H]1C[C@H](C)[C@]2(CC[C@]3(C)C[C@H]4[C@H](C(=O)C[C@@]4(C)O)/C(C=O)=C\C[C@H]32)O1` [OPHIOBOLIN A], the Activity is 3 mm in the test with Solanum lycopersicum [1]; 3 mm with Chenopodium album [2]; 2 mm in the test with Chenopodium album [4]; 3 mm with Digitaria sanguinalis [5]; 3 mm in the test with Solanum lycopersicum [6]; 3 mm in the test on Digitaria sanguinalis [7]. The Activity in the test on RD worked out at 70%. Moreover, the negative-log IC50 (pIC50) in the test with B16-F10 is 6.54.

For the molecule `CC1=CC(=O)[C@H]2/C(C=O)=C\C[C@@H]3[C@](C)(CC[C@]3(O)[C@@H](C)CCCC(C)(C)O)C[C@H]12`, the result in the test on NCI-H1299 was inactive. Besides, the Activity is given as 1 mm in the test with Solanum lycopersicum [1]; “<=72%” with A-431; 3 mm in the test with Chenopodium album [2]; 0 mm in the test with Chenopodium album [4]; 2 mm with Digitaria sanguinalis [5]; “<=63%” in the test on HaCaT. Besides, the figures for the Activity with Solanum lycopersicum [6], with Digitaria sanguinalis [7] and with HeLa [8] were 2 mm, 3 mm and “<=50%”, respectively. Besides, the pIC50 in the test on HeLa [3] was 5.00.
